# Experimental data: patent publication US8470855B2, “Dual-use peptidase inhibitors as prodrugs for a therapy of inflammatory and other diseases” (IMTM GmbH, priority 2005, dated 2013)
# Legend:
# [1] = molecular target: T1, APN (Leucin aminopeptidase, microsomal, EC 3.4.11.2) (Sus scrofa, UniProt P15145); experiment: IC50 determination against APN after reduction of the prodrugs with DTT; type: biochemical; settings: after release (reduction with DTT) of the inhibitors from the prodrugs; pig kidney enzyme, substrate Leu-AMC, pH 7.2, 30° C.; read-out: APN (IC 50 [M])
# T1 construct: purchased Sigma; host or cells: pig kidney (tissue-derived)
# T1 sequence (P15145 1-963): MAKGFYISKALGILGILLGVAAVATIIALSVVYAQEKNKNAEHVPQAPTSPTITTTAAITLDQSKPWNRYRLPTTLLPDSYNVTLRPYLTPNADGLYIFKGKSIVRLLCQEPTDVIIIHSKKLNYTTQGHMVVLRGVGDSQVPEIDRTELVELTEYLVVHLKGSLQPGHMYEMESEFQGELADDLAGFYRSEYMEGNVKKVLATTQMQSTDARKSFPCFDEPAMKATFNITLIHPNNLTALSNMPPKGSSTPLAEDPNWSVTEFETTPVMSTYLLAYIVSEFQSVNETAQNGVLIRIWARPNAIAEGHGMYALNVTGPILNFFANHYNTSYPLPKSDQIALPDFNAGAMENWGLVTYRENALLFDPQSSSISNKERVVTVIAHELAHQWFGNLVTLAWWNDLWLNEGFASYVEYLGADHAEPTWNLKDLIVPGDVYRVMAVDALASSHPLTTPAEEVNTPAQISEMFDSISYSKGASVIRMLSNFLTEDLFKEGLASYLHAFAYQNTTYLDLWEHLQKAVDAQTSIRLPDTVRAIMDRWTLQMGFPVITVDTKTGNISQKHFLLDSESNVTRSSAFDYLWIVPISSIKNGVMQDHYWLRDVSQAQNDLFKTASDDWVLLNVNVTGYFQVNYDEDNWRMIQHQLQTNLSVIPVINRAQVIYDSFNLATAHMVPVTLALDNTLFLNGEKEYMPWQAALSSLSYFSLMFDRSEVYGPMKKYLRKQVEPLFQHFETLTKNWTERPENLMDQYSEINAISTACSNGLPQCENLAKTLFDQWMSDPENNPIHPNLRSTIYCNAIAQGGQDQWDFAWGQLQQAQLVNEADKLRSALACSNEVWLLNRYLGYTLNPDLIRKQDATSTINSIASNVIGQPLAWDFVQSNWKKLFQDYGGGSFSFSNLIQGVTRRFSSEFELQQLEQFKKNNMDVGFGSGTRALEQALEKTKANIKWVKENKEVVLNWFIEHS
# Method: (§1) Process of the Reduction with DTT:
# (§2) Same volumes of the 7·10^−2 M solution of the inhibitor in water or DMF and a 0.35 M aqueous DTT-solution (5 equivalents) were agitated 4 hours at RT.
# (§3) Subsequently to the reductive treatment of the prodrugs the IC50-values were estimated using the following process:
# (§4) Determination of the IC50-Values after Reduction:
# Leucin aminopeptidase, microsomal, from pig kidney (EC 3.4.11.2).
# Suspension in 3.5 M (NH4)2SO4-solution (Sigma).
# Substrate: Leu-AMC, [S]=1.5·10^−4 M (2 Km) in the reaction batch.
# Buffer: 40 mM Tris/HCl-buffer, pH 7.2 in the reaction batch. […]
# (§5) 60 μl of these inhibitor solutions each or water (standard), were incubated with 80 μl of the according diluted enzymes in buffer for 15 minutes at 30° C. and subsequently 60 μl of the according AMC-substrate in water (total volume 200 μl) were added. The release of the 7-Amino-4-methyl-cumarin was traced continuously over a period of 20 minutes at 30° C. using a fluorence-pladt-reader NOVOstar (BMG Labtechnologies). The enzyme concentration was chosen to give a linear increase of the fluorescence during the measuring period.
# The excitation- and emission-wavelengths, respectively, were 390 and 460 nm. […] The turn-over rates (increase of fluorescence/minutes) were plotted against the concentration of the inhibitor and the IC50-values were calculated using the computer program GraFit. […]
# [2] = molecular target: T2, Dipeptidyl peptidase IV (EC 3.4.14.5.) (Sus scrofa, UniProt P22411); experiment: IC50 determination against DP IV after reduction of the prodrugs with DTT; type: biochemical; settings: after release (reduction with DTT) of the inhibitors from the prodrugs; pig kidney enzyme, substrate Ala-Pro-AMC, pH 7.6, 30° C.; read-out: DP IV (IC 50 [M])
# T2 construct: purchased Sigma; host or cells: pig kidney (tissue-derived)
# Method: as §1, §2, §3, §4
# Dipeptidyl peptidase IV from pig kidney (EC 3.4.14.5.), lyophilisated powder (Sigma).
# Substrate: Ala-Pro-AMC, [S]=3·10^−5 M (2 Km) in the reaction batch.
# Buffer: 40 mM Tris/HCl-buffer, pH 7.6, I=0.125 in the reaction batch.
# By dilution with water 10 to 12 solutions with defined inhibitor concentration were prepared from the reduction batch. These were selected from a relevant concentration range, i.e. between complete inhibition and non-influenced enzyme activity.
# as §5, with “period. […]” for “period.”
# T2 sequence (P22411 whole entry): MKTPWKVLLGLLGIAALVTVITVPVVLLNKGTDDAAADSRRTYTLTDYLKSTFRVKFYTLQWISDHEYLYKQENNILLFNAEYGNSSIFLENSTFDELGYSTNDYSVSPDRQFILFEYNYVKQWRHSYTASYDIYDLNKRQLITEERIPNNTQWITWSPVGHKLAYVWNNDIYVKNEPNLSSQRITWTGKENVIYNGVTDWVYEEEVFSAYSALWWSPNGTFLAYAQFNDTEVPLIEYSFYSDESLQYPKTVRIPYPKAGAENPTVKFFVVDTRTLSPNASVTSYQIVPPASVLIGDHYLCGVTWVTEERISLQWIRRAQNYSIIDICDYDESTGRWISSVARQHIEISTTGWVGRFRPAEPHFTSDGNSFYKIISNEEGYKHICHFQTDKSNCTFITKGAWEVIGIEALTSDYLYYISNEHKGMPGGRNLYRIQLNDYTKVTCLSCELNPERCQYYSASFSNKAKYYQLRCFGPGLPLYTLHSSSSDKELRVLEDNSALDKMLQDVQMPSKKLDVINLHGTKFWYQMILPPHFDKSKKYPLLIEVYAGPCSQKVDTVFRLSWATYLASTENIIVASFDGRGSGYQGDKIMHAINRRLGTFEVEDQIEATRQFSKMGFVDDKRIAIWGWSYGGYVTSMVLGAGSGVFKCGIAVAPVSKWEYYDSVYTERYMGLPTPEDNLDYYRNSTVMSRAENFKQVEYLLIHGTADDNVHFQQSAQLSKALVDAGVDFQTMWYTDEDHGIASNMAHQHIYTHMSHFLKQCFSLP
Compound,IC50 [1] [M],IC50 [2] [M]
"CCCCC[C@H](CC(=O)NO)C(=O)N[C@H](C(=O)N1CCC[C@H]1CO)C(C)C [Actinonine, actinonine]",3.02e-07,
"NC(CCCCNC(=O)OCc1ccc([N+](=O)[O-])cc1)C(=O)N1CCSC1 (centres unmarked) [Lys[Z(NO2)]-thiazolidide, H-Lys[Z(NO2)]-thiazolidide]",,4.34e-07
